Source: US7060733B2, “Methods for treating pancreatitis with curcumin compounds and inhibitors of reactive oxygen species” (The Regents of the University of California, priority 2002, dated 2006)

How the values were obtained:
NF-κB = test: Curcumin and N-acetylcysteine alone and in combination, NF-κB activation in CCK-stimulated acinar cells; type: cell-based, rat; conditions: 0.1 μM CCK
Description: To measure the effects of curcumin compounds and ROS inhibitors, EMSAs and nuclear protein extractions were conducted as provided above. […] EMSAs for NF-κB activation were performed on nuclear proteins extracted from each sample.

NF-κB and AP-1 = conditions: antioxidant; cited from earlier work

Row | Compound | inhibition of NF-κB activation in CCK-stimulated acinar cells (NF-κB; N-acetylcysteine 10 μM alone) | NF-κB activation (NF-κB and AP-1) | inhibition of NF-κB activation in CCK-stimulated acinar cells (NF-κB; curcumin 50 μM with N-acetylcysteine 10 μM)
1 | CC(=O)N[C@@H](CS)C(=O)O [N-acetylcysteine, reference compound] | very little inhibition | inhibit | 
2 | curcumin and N-acetylcysteine |  |  | synergistic effect
